# Key:
# [1] = system: Candida albicans; assay: Antifungal activity against Candida albicans; assay type: functional
# [2] = system: Aspergillus niger; assay: Antifungal activity against Aspergillus niger; assay type: functional
# [3] = system: Bacillus cereus; assay: Antibacterial activity against Bacillus cereus ATCC 10876 after 24 hrs by microdilution method; assay type: functional; settings: ATCC 10876, 24 h
# [4] = system: Enterococcus faecalis; assay: Antibacterial activity against Enterococcus faecalis ATCC 29212 after 24 hrs by microdilution method; assay type: functional; settings: ATCC 29212, 24 h
# [5] = system: Staphylococcus aureus; assay: Antibacterial activity against Staphylococcus aureus ATCC 25923 after 24 hrs by microdilution method; assay type: functional; settings: ATCC 25923, 24 h
# [6] = system: Proteus mirabilis; assay: Antibacterial activity against Proteus mirabilis ATCC 35659 after 24 hrs by microdilution method; assay type: functional; settings: ATCC 35659, 24 h
# [7] = system: Escherichia coli; assay: Antibacterial activity against Escherichia coli ATCC 25922 after 24 hrs by microdilution method; assay type: functional; settings: ATCC 25922, 24 h
# [8] = system: Pseudomonas aeruginosa; assay: Antibacterial activity against Pseudomonas aeruginosa ATCC 27853 after 24 hrs by microdilution method; assay type: functional; settings: ATCC 27853, 24 h
# [9] = system: Candida albicans; assay: Antifungal activity against Candida albicans ATCC 50193 after 24 hrs by microdilution method; assay type: functional; settings: ATCC 50193, 24 h
# [10] = system: Aspergillus brasiliensis; assay: Antifungal activity against Aspergillus brasiliensis ATCC 16404 after 24 hrs by microdilution method; assay type: functional; settings: ATCC 16404, 24 h
# [11] = system: Staphylococcus aureus; assay: Antibacterial activity against methicillin-resistant Staphylococcus aureus incubated for 18 hrs post 30 mins pre-diffusion by disk diffusion method; assay type: functional
# [12] = system: Bacillus anthracis; assay: Antibacterial activity against Bacillus anthracis incubated for 18 hrs post 30 mins pre-diffusion by disk diffusion method; assay type: functional
# [13] = system: Listeria monocytogenes; assay: Antibacterial activity against Listeria monocytogenes ATCC 35152 after 24 hrs by broth microdilution method; assay type: functional; settings: ATCC 35152, 24 h
# [14] = system: Pseudomonas aeruginosa; assay: Antibacterial activity against Pseudomonas aeruginosa ATCC 27853 after 24 hrs by broth microdilution method; assay type: functional; settings: ATCC 27853, 24 h
# [15] = system: Micrococcus luteus; assay: Antibacterial activity against Micrococcus luteus incubated for 18 hrs post 30 mins pre-diffusion by disk diffusion method; assay type: functional
# [16] = system: Bacillus subtilis; assay: Antibacterial activity against Bacillus subtilis incubated for 18 hrs post 30 mins pre-diffusion by disk diffusion method; assay type: functional
# [17] = system: Escherichia coli; assay: Antibacterial activity against Escherichia coli incubated for 18 hrs post 30 mins pre-diffusion by disk diffusion method; assay type: functional
# [18] = system: Listeria innocua; assay: Antibacterial activity against Listeria innocua incubated for 18 hrs post 30 mins pre-diffusion by disk diffusion method; assay type: functional
# [19] = system: Staphylococcus aureus; assay: Antibacterial activity against Staphylococcus aureus incubated for 18 hrs post 30 mins pre-diffusion by disk diffusion method; assay type: functional
# [20] = system: Escherichia coli; assay: Antibacterial activity against Escherichia coli; assay type: functional
# [21] = system: Staphylococcus aureus; assay: Antibacterial activity against Staphylococcus aureus; assay type: functional
# [22] = system: Streptococcus pneumoniae; assay: Antibacterial activity against Streptococcus pneumoniae; assay type: functional
# [23] = system: Bacillus subtilis; assay: Antibacterial activity against Bacillus subtilis; assay type: functional
# [24] = system: Clostridium tetani; assay: Antibacterial activity against Clostridium tetani; assay type: functional
# [25] = system: Pseudomonas aeruginosa; assay: Antibacterial activity against Pseudomonas aeruginosa; assay type: functional
# [26] = system: Staphylococcus aureus; assay: Antibacterial activity against Staphylococcus aureus ATCC 49444 after 24 hrs by broth microdilution method; assay type: functional; settings: ATCC 49444, 24 h
# [27] = system: Salmonella typhimurium; assay: Antibacterial activity against Salmonella typhimurium ATCC 14028 after 24 hrs by broth microdilution method; assay type: functional, Salmonella enterica subsp. enterica serovar Typhimurium; settings: Salmonella enterica, ATCC 14028, 24 h
# [28] = system: Escherichia coli; assay: Antibacterial activity against Escherichia coli after 24 hrs by broth microdilution method; assay type: functional
Compound,MIC [3] [µg/mL],MIC [4] [µg/mL],MIC [5] [µg/mL],MIC [6] [µg/mL],MIC [7] [µg/mL],MIC [8] [µg/mL],MIC [9] [µg/mL],MIC [10] [µg/mL],MIC [11] [µg/mL],MIC [12] [µg/mL],other results
OC(Cn1cncn1)(Cn1cncn1)c1ccc(F)cc1F [FLUCONAZOLE],4,4,4,4,4,4,1,1,–,–,MIC [1]: 10.2 µg/mL; MIC [2]: 9.4 µg/mL
CO[C@H]1/C=C/O[C@@]2(C)Oc3c(C)c(O)c4c(O)c(c(/C=N/N5CCN(C)CC5)c(O)c4c3C2=O)NC(=O)/C(C)=C\C=C\[C@H](C)[C@H](O)[C@@H](C)[C@@H](O)[C@@H](C)[C@H](OC(C)=O)[C@@H]1C [RIFAMPIN],–,–,–,–,–,–,–,–,31 to 1000,31 to 1000,–
CN[C@H](CC(C)C)C(=O)N[C@H]1C(=O)N[C@@H](CC(N)=O)C(=O)N[C@H]2C(=O)N[C@H]3C(=O)N[C@H](C(=O)N[C@H](C(=O)O)c4cc(O)cc(O)c4-c4cc3ccc4O)[C@H](O)c3ccc(c(Cl)c3)Oc3cc2cc(c3O[C@@H]2O[C@H](CO)[C@@H](O)[C@H](O)[C@H]2O[C@H]2C[C@](C)(N)[C@H](O)[C@H](C)O2)Oc2ccc(cc2Cl)[C@H]1O [VANCOMYCIN],–,–,–,–,–,–,–,–,8,8,–
CCCCCCCCCCCCCCn1nnc(-c2n[nH]c(=S)n2N)c1-c1n[nH]c(=S)n1N,1 to 16,1 to 16,1 to 16,1 to 16,1 to 16,1 to 16,1 to 16,1 to 16,–,–,–
CCCCCCCCCCCCCCn1nnc(-c2n[nH]c(=S)n2-c2ccccc2)c1-c1n[nH]c(=S)n1-c1ccccc1,1 to 128,1 to 128,1 to 128,1 to 128,1 to 128,1 to 128,1 to 128,1 to 128,–,–,–
O=C(O)c1cn(C2CC2)c2cc(N3CCNCC3)c(F)cc2c1=O [CIPROFLOXACIN],1 to 8,1 to 8,1 to 8,1 to 8,1 to 8,1 to 8,1 to 8,1 to 8,–,–,MIC [13]: 3.9 µg/mL; MIC [14]: 3.9 µg/mL
CCCCCCCCCCn1nnc(-c2n[nH]c(=S)n2N)c1-c1n[nH]c(=S)n1N,1 to 128,1 to 128,1 to 128,1 to 128,1 to 128,1 to 128,1 to 128,1 to 128,–,–,–
CC[C@H]1OC(=O)[C@H](C)[C@@H](O[C@H]2C[C@@](C)(OC)[C@@H](O)[C@H](C)O2)[C@H](C)[C@@H](O[C@@H]2O[C@H](C)C[C@H](N(C)C)[C@H]2O)[C@](C)(O)C[C@@H](C)C(=O)[C@H](C)[C@@H](O)[C@]1(C)O [ERYTHROMYCIN],–,–,–,–,–,–,–,–,31 to 1000,31 to 1000,–
CCCCCCCCCCCCn1nnc(-c2n[nH]c(=S)n2-c2ccccc2)c1-c1n[nH]c(=S)n1-c1ccccc1,1 to 128,1 to 128,1 to 128,1 to 128,1 to 128,1 to 128,1 to 128,1 to 128,–,–,–
CC(C)N(Cc1ncn(C)n1)Cc1ncn(C)n1,–,–,–,–,–,–,–,–,–,–,MIC [15]: 7 to 15 µg/mL; MIC [16]: 7 to 15 µg/mL; MIC [17]: 7 to 15 µg/mL; MIC [18]: 7 to 15 µg/mL
COC(=O)c1ncn(CNCn2cnc(C(=O)OC)n2)n1,–,–,–,–,–,–,–,–,–,–,MIC [15]: 7 to 15 µg/mL; MIC [16]: 7 to 15 µg/mL; MIC [17]: 7 to 15 µg/mL; MIC [18]: 7 to 15 µg/mL
CCCCCCCCCCCCCCCCn1nnc(-c2n[nH]c(=S)n2N)c1-c1n[nH]c(=S)n1N,1 to 128,1 to 128,1 to 128,1 to 128,1 to 128,1 to 128,1 to 128,1 to 128,–,–,–
CCCCCCCCCCCCCCCCn1nnc(-c2n[nH]c(=S)n2-c2ccccc2)c1-c1n[nH]c(=S)n1-c1ccccc1,1 to 128,1 to 128,1 to 128,1 to 128,1 to 128,1 to 128,1 to 128,1 to 128,–,–,–
FC(F)(F)c1cc(-c2nnc(Sc3cc(Cl)nc(Sc4ccccc4)n3)[nH]2)cc(C(F)(F)F)c1,–,–,–,–,–,–,–,–,0.75 to 1.8,0.75 to 1.8,MIC [17]: 1.8 µg/mL; MIC [19]: 3.1 µg/mL
CCCCCCCCCCCCn1nnc(-c2n[nH]c(=S)n2N)c1-c1n[nH]c(=S)n1N,1 to 128,1 to 128,1 to 128,1 to 128,1 to 128,1 to 128,1 to 128,1 to 128,–,–,–
CC1(C)S[C@@H]2[C@H](NC(=O)[C@H](N)c3ccccc3)C(=O)N2[C@H]1C(=O)O [AMPICILLIN],–,–,–,–,–,–,–,–,31 to 1000,31 to 1000,MIC [20]: 100 to 250 µg/mL; MIC [21]: 10.9 µg/mL; MIC [22]: 100 to 250 µg/mL; MIC [23]: 100 to 250 µg/mL; MIC [24]: 100 to 250 µg/mL; MIC [25]: 10.2 µg/mL
CCCCCCCCCCn1nnc(-c2n[nH]c(=S)n2-c2ccccc2)c1-c1n[nH]c(=S)n1-c1ccccc1,1 to 128,1 to 128,1 to 128,1 to 128,1 to 128,1 to 128,1 to 128,1 to 128,–,–,–
Cc1nc(-c2ccccc2)sc1-c1nnc(S)n1/N=C/c1cccc(Cl)c1,–,–,–,–,–,–,–,–,–,–,MIC [13]: 1.95 to 62.5 µg/mL; MIC [26]: 1.95 to 62.5 µg/mL; MIC [14]: 1.95 to 62.5 µg/mL; MIC [27]: 1.95 to 62.5 µg/mL; MIC [28]: 1.95 to 62.5 µg/mL
NC[C@H]1O[C@H](O[C@H]2[C@H](O)[C@@H](O[C@H]3O[C@H](CO)[C@@H](O)[C@H](N)[C@H]3O)[C@H](N)C[C@@H]2N)[C@H](O)[C@@H](O)[C@@H]1O [KANAMYCIN],–,–,–,–,–,–,–,–,31 to 1000,31 to 1000,–
POLYMYXIN B,–,–,–,–,–,–,–,–,31 to 1000,31 to 1000,–
Cc1nc(-c2ccccc2)sc1-c1nnc(S)n1/N=C/c1cccc(Cl)c1Cl,–,–,–,–,–,–,–,–,–,–,MIC [13]: 1.95 to 62.5 µg/mL; MIC [26]: 1.95 to 62.5 µg/mL; MIC [14]: 1.95 to 62.5 µg/mL; MIC [27]: 1.95 to 62.5 µg/mL; MIC [28]: 1.95 to 62.5 µg/mL
CCn1cc(C(=O)O)c(=O)c2cc(F)c(N3CCNCC3)cc21 [NORFLOXACIN],–,–,–,–,–,–,–,–,31 to 1000,31 to 1000,MIC [21]: 14.1 µg/mL; MIC [1]: 7.8 µg/mL; MIC [2]: 10.2 µg/mL; MIC [25]: 11.7 µg/mL
Cc1nc(-c2ccccc2)sc1-c1nnc(S)n1/N=C/c1ccc(F)cc1,–,–,–,–,–,–,–,–,–,–,MIC [13]: 1.95 to 62.5 µg/mL; MIC [26]: 1.95 to 62.5 µg/mL; MIC [14]: 1.95 to 62.5 µg/mL; MIC [27]: 1.95 to 62.5 µg/mL; MIC [28]: 1.95 to 62.5 µg/mL
Cc1nc(-c2ccccc2)sc1-c1nnc(S)n1/N=C/c1ccc(O)cc1,–,–,–,–,–,–,–,–,–,–,MIC [13]: 1.95 to 62.5 µg/mL; MIC [26]: 1.95 to 62.5 µg/mL; MIC [14]: 1.95 to 62.5 µg/mL; MIC [27]: 1.95 to 62.5 µg/mL; MIC [28]: 1.95 to 62.5 µg/mL
Cc1nc(-c2ccccc2)sc1-c1nnc(S)n1/N=C/c1cccc([N+](=O)[O-])c1,–,–,–,–,–,–,–,–,–,–,MIC [13]: 1.95 to 62.5 µg/mL; MIC [26]: 1.95 to 62.5 µg/mL; MIC [14]: 1.95 to 62.5 µg/mL; MIC [27]: 1.95 to 62.5 µg/mL; MIC [28]: 1.95 to 62.5 µg/mL
Cc1nc(-c2ccccc2)sc1-c1nnc(S)n1/N=C/c1ccc(Br)cc1,–,–,–,–,–,–,–,–,–,–,MIC [13]: 1.95 to 62.5 µg/mL; MIC [26]: 1.95 to 62.5 µg/mL; MIC [14]: 1.95 to 62.5 µg/mL; MIC [27]: 1.95 to 62.5 µg/mL; MIC [28]: 1.95 to 62.5 µg/mL
